Values joined by “and” are separate entries in the source; they are usually repeats but may differ in a detail not shown here. Identical values can stand only once.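 Compound exposure: 48 hours, 5 concentrations, 96-well plates. GI50 marks 50% less growth. The concentration for full growth arrest is given as TGI.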
What was measured:
Experiment in all cases: NCI anticancer screen, dose series, 48 h
[1] = tested on: 786-0 renal
[2] = tested on: A549 NSCLC
[3] = tested on: MOLT-4 leukemia
[4] = tested on: NCI-H460 lung
[5] = tested on: RPMI-8226 leukemia
[6] = tested on: SNB-19 CNS
[7] = tested on: SNB-75 CNS
[8] = tested on: U251 CNS
[9] = tested on: T-47D breast
[10] = tested on: DU-145 prostate

Row | SMILES | TGI [1] [µM] | TGI [2] | TGI [3] [µM] | TGI [4] | TGI [5] [µM] | TGI [6] | TGI [7] | TGI [8] [µM] | GI50 [1] [µM] | GI50 [2] [µM] | GI50 [3] [µM] | GI50 [4] [µM] | GI50 [5] [µM] | GI50 [6] [µM] | GI50 [7] [µM] | GI50 [9] [µM] | TGI [9] [µM] | GI50 [8] [µM] | GI50 [10] [µM] | TGI [10] [µM]
1 | C#CCC[C@@H]1O[C@@]1(C)CC/C=C(\C)CC/C=C/C=O | > 100 | > 100 µM | 52.9 | > 100 µM | 56.4 | > 100 µM | > 100 µM | 39.3 |  |  |  |  |  |  |  |  |  |  |  | 
2 | COc1cccc(C2CC(c3cc(OC)c(OC)c(OC)c3)=NN2)c1 (stereo not drawn) | 56.4 | 87.2 µM | 41.4 | 35.4 µM | 26 | > 100 µM | > 100 µM | 22.8 | 13.7 | 21.7 | 6.17 | 13.3 | 5.18 | 16.8 | 15.6 | 20.2 | > 100 | 10 |  | 
3 | O=C1c2ccccc2C2(O)Nc3cc(O)ccc3C12O (stereo not drawn) | > 100 | > 100 µM | > 100 | > 100 µM | > 100 | > 100 µM | > 100 µM | > 100 |  |  |  |  |  |  |  |  |  |  |  | 
4 | O=C(NCCCCCCCCNC(=O)c1cnc2ccccc2n1)c1cnc2ccccc2n1 | > 100 | > 100 µM | > 100 | > 100 µM | > 100 | > 100 µM | > 100 µM | > 100 |  |  |  |  |  |  |  |  |  |  |  | 
5 | CC1=CC2CC(C)=C(CC[C@]3(C)CC[C@H]([C@@H](C)C(=O)O)OO3)C(C)(C)C2CC1 (stereo partly drawn) | 4.78 | 1.06 µM |  | 0.393 µM |  | 3.08 µM | 2.29 µM | 1.01 |  |  |  |  |  |  |  |  |  |  |  | 
6 | CC(C)(C)OC(=O)NCCNC1=CC(=O)c2nc3ccccc3c3ccnc1c23 | > 100 | > 100 µM |  | 43.1 µM |  | 83.7 µM | 42.6 µM | 65 | 28.5 | 18.4 |  | 15.2 |  | 22.7 | 17.8 | 25.8 | > 100 | 18.8 | 22.7 | 80.9
7 | CN(C)c1ccc2c(c1)C(=O)N(OS(=O)(=O)c1ccc([N+](=O)[O-])cc1)C2=O | 47.9 | > 100 µM |  | > 100 µM |  | > 100 µM | > 100 µM | 35.1 |  |  |  |  |  |  |  |  |  |  |  | 
8 | COc1cc(CCc2cccnc2)cc(OC)c1OC | > 100 | > 100 µM | > 100 | > 100 µM | > 100 | > 100 µM | > 100 µM | > 100 |  |  |  |  |  |  |  |  |  |  |  | 
9 | CCC[CH2][Sn]([CH2]CCC)([O]C(=O)c1c(F)cccc1F)[O]C(=O)c1c(F)cccc1F | 2 | 11 µM | 0.818 | 2.9 µM |  | 2.56 µM | 1.82 µM | 1.6 | 0.768 | 3.12 | 0.239 | 1.54 |  | 1.29 | 0.509 |  |  | 0.443 |  | 
10 | N#Cc1cccc(N2C(=O)c3c(c(-c4ccccc4)c(-c4ccc(Sc5ccc(-c6c(-c7ccccc7)c7c(c(-c8ccccc8)c6-c6ccccc6)C(=O)N(c6cccc(C#N)c6)C7=O)cc5)cc4)c(-c4ccccc4)c3-c3ccccc3)C2=O)c1 | > 100 | > 100 µM | > 100 | > 100 µM | > 100 | > 100 µM |  | 54.2 |  |  |  |  |  |  |  |  |  |  |  | 
11 | O=S(=O)(Nc1ncccn1)c1ccc(N=Nc2ccc(O)c3ncccc23)cc1 | 58.1 | 29 µM | 51.2 | 17.2 µM | 25.2 | > 100 µM | 11 µM | 30.4 | 7.17 | 5.46 | 5.68 | 3.69 | 3.94 | 6.83 | 2.01 |  |  | 4.71 | 12 | > 100
12 | FC(F)(F)C1(Cl)C(c2ccccc2)=C1c1ccccc1 | 31.1 | 28.9 µM | > 100 | 30.4 µM | > 100 | 31.9 µM |  | 28.2 |  |  |  |  |  |  |  |  |  |  |  | 
13 | COc1cc(/C(Cl)=C/C=C/C(=O)c2c(C)[n+]([O-])c3ccc(Cl)cc3[n+]2[O-])cc(OC)c1OC | > 50 |  | 3.56 | > 50 µM | > 50 | > 50 µM | 19.6 µM | 10.5 | 4.62 |  | 1.35 | 11.5 | 2.18 | 15 | 4.06 | 10.7 | > 50 | 2.57 | 11.8 | > 50
14 | O=C(Nc1ccc(Cl)cc1Cl)c1ccc(NC2=C(Cl)C(=O)N(Cc3ccccc3)C2=O)cc1 | > 100 | 66.1 µM | 11.3 | 37.9 µM | 9.04 | 31.9 µM |  | 24.5 | 21.6 | 25.9 | 3.57 | 15.8 | 2.84 | 17.9 |  | 23.4 | > 100 | 12.2 | 18.7 | 39.4
15 | CC1[C@@H]2[C@@H](C=C3C4CCC5Cc6nc7c(nc6C[C@@]5(C)C4C[C@H](O)[C@]32CO)CC2CCC3C4=C[C@H]5O[C@@]6(O[C@@](C)(CO)C[C@@H]6O)C(C)[C@@]5(O)[C@]4(C)[C@@H](O)CC3[C@]2(C)C7)O[C@]12CCC(C)(C)O2 (stereo partly drawn) | 0.534 | 0.919 µM and > 3.65 µM | 0.0161 | 0.132 µM and 0.104 µM |  | 0.603 µM and > 3.65 µM | 0.0159 µM and 0.0134 µM | 0.0664 |  | 0.00602 |  | 0.000713 | < 0.000365 | 0.0264 | 0.000741 |  |  | < 0.000365 |  | 
16 | CC1=CCC[C@@]2(C)C(CC[C@@H]2C(C)/C=C/C(C)C)c2ccc(cc2C(=O)O)C[C@@H](O)CC1 (stereo partly drawn) | 27.9 | 20.3 µM | 28 | 20.1 µM | 19.7 | 17.5 µM | 27.4 µM | 16 |  |  |  |  |  |  |  |  |  |  |  | 
17 | CC(C)=CCN=C(N)N | > 100 | > 100 µM | > 100 | > 100 µM | 99.7 | > 100 µM |  | > 100 |  |  |  |  |  |  |  |  | > 100 |  |  | > 100
18 | COc1cc(C(=O)OCCCCCCCCCCC[P+](c2ccccc2)(c2ccccc2)c2ccccc2)ccc1O | 2.38 |  | 4.31 |  | 0.942 |  |  |  | 1.06 |  | 0.557 |  | 0.2 |  |  |  |  |  | 0.46 | 1.58

From PubChem BioAssay (NCI)
